ChEMBL document CHEMBL3885881, “DrugMatrix”

Species on record: Rattus norvegicus
Test: DrugMatrix - Regimen: Daily Repeat
Format: toxicity, organism-based, Sprague-Dawley
Set-up: regimen Daily Repeat, gender Male, age 6-8 weeks
Details: in vivo, sc, route subcutaneous, […]; for ABSOLUTE BASOPHIL / ABSOLUTE EOSINOPHIL / ABSOLUTE LYMPHOCYTE / ABSOLUTE MONOCYTE / BASOPHIL / EOSINOPHIL / ERYTHROCYTE COUNT / HEMATOCRIT / HEMOGLOBIN / LEUKOCYTE COUNT / LYMPHOCYTE / MEAN CORPUSCULAR HEMOGLOBIN / MEAN CORPUSCULAR HEMOGLOBIN CONCENTRATION / MEAN CORPUSCULAR VOLUME / MONOCYTE / NEUTROPHIL / NUCLEATED RED BLOOD CELLS / PLATELET COUNT: tissue Blood; for ALANINE AMINOTRANSFERASE / ALBUMIN / ASPARTATE AMINOTRANSFERASE / BLOOD UREA NITROGEN / CARBON DIOXIDE / CHLORIDE / CHOLESTEROL / CREATINE PHOSPHOKINASE / CREATININE / GLUCOSE / LACTATE DEHYDROGENASE / LIPASE / PHOSPHORUS / POTASSIUM / SODIUM / TOTAL BILIRUBIN / TOTAL PROTEIN / URIC ACID: tissue Plasma
[1] = 64 mg/kg, 120 h, dose level Low, time 5 day
[2] = 636 mg/kg, 72 h, dose level High, time 3 day
[3] = 636 mg/kg, 120 h, dose level High, time 5 day

Nc1ccc(S(N)(=O)=O)cc1 [SULFANILAMIDE]
ABSOLUTE BASOPHIL [1]: 0 CELLS/uL
ABSOLUTE EOSINOPHIL [1]: 0 CELLS/uL
ABSOLUTE LYMPHOCYTE [1]: 12536.33 CELLS/uL
ABSOLUTE MONOCYTE [1]: 42.67 CELLS/uL
BASOPHIL [1]: 0%
EOSINOPHIL [1]: 0%
ERYTHROCYTE COUNT [1]: 5.85 x10E6/uL
HEMATOCRIT [1]: 36.4%
HEMOGLOBIN [1]: 13.6 G/DL
LEUKOCYTE COUNT [1]: 13.6 x10E3/uL
LYMPHOCYTE [1]: 92.67%
MEAN CORPUSCULAR HEMOGLOBIN [1]: 23.33 pg
MEAN CORPUSCULAR HEMOGLOBIN CONCENTRATION [1]: 37.4 G/DL
MEAN CORPUSCULAR VOLUME [1]: 62.37 fL
MONOCYTE [1]: 0.33%
NEUTROPHIL [1]: 7%
NUCLEATED RED BLOOD CELLS [1]: 0.33 /100WBC
PLATELET COUNT [1]: 1318 x10E3/uL
ALANINE AMINOTRANSFERASE [1]: 52 u/L
ALBUMIN [1]: 4.03 G/DL
ASPARTATE AMINOTRANSFERASE [1]: 72 u/L
BLOOD UREA NITROGEN [1]: 15.67 mg/dL
CARBON DIOXIDE [1]: 26.33 mmol/L
CHLORIDE [1]: 105.33 MEQ/L
CHOLESTEROL [1]: 72.33 mg/dL
CREATINE PHOSPHOKINASE [1]: 187 u/L
CREATININE [1]: 0.27 mg/dL
GLUCOSE [1]: 156.33 mg/dL
LACTATE DEHYDROGENASE [1]: 102.33 u/L
LIPASE [1]: 11 u/L
PHOSPHORUS [1]: 12.07 mg/dL
POTASSIUM [1]: 7.26 MEQ/L
SODIUM [1]: 145.23 MEQ/L
TOTAL BILIRUBIN [1]: 0.23 mg/dL
TOTAL PROTEIN [1]: 5.9 G/DL
URIC ACID [1]: 1.87 mg/dL
ABSOLUTE BASOPHIL [2]: 0 CELLS/uL
ABSOLUTE EOSINOPHIL [2]: 116 CELLS/uL
ABSOLUTE LYMPHOCYTE [2]: 13223.33 CELLS/uL
ABSOLUTE MONOCYTE [2]: 374 CELLS/uL
BASOPHIL [2]: 0%
EOSINOPHIL [2]: 0.67%
ERYTHROCYTE COUNT [2]: 5.74 x10E6/uL
HEMATOCRIT [2]: 35.33%
HEMOGLOBIN [2]: 12.9 G/DL
LEUKOCYTE COUNT [2]: 15.8 x10E3/uL
LYMPHOCYTE [2]: 83.67%
MEAN CORPUSCULAR HEMOGLOBIN [2]: 22.47 pg
MEAN CORPUSCULAR HEMOGLOBIN CONCENTRATION [2]: 36.5 G/DL
MEAN CORPUSCULAR VOLUME [2]: 61.53 fL
MONOCYTE [2]: 2.33%
NEUTROPHIL [2]: 13.33%
NUCLEATED RED BLOOD CELLS [2]: 0 /100WBC
PLATELET COUNT [2]: 1297.33 x10E3/uL
ALANINE AMINOTRANSFERASE [2]: 71 u/L
ALBUMIN [2]: 3.97 G/DL
ASPARTATE AMINOTRANSFERASE [2]: 90.33 u/L
BLOOD UREA NITROGEN [2]: 18.67 mg/dL
CARBON DIOXIDE [2]: 25 mmol/L
CHLORIDE [2]: 103 MEQ/L
CHOLESTEROL [2]: 101.33 mg/dL
CREATINE PHOSPHOKINASE [2]: 400.67 u/L
CREATININE [2]: 0.16 mg/dL
GLUCOSE [2]: 181.67 mg/dL
LACTATE DEHYDROGENASE [2]: 100.67 u/L
LIPASE [2]: 10 u/L
PHOSPHORUS [2]: 12.37 mg/dL
POTASSIUM [2]: 5.81 MEQ/L
SODIUM [2]: 145.13 MEQ/L
TOTAL BILIRUBIN [2]: 0.2 mg/dL
TOTAL PROTEIN [2]: 5.67 G/DL
URIC ACID [2]: 2.4 mg/dL
ABSOLUTE BASOPHIL [3]: 0 CELLS/uL
ABSOLUTE EOSINOPHIL [3]: 129.33 CELLS/uL
ABSOLUTE LYMPHOCYTE [3]: 15741.33 CELLS/uL
ABSOLUTE MONOCYTE [3]: 353 CELLS/uL
BASOPHIL [3]: 0%
EOSINOPHIL [3]: 0.67%
ERYTHROCYTE COUNT [3]: 5.45 x10E6/uL
HEMATOCRIT [3]: 34.17%
HEMOGLOBIN [3]: 12.6 G/DL
LEUKOCYTE COUNT [3]: 18.03 x10E3/uL
LYMPHOCYTE [3]: 86.33%
MEAN CORPUSCULAR HEMOGLOBIN [3]: 23.13 pg
MEAN CORPUSCULAR HEMOGLOBIN CONCENTRATION [3]: 36.87 G/DL
MEAN CORPUSCULAR VOLUME [3]: 62.7 fL
MONOCYTE [3]: 2%
NEUTROPHIL [3]: 11%
NUCLEATED RED BLOOD CELLS [3]: 0 /100WBC
PLATELET COUNT [3]: 1550 x10E3/uL
ALANINE AMINOTRANSFERASE [3]: 66 u/L
ALBUMIN [3]: 3.8 G/DL
ASPARTATE AMINOTRANSFERASE [3]: 77 u/L
BLOOD UREA NITROGEN [3]: 21.67 mg/dL
CARBON DIOXIDE [3]: 26.67 mmol/L
CHLORIDE [3]: 105.33 MEQ/L
CHOLESTEROL [3]: 81.33 mg/dL
CREATINE PHOSPHOKINASE [3]: 230.33 u/L
CREATININE [3]: 0.16 mg/dL
GLUCOSE [3]: 165.33 mg/dL
LACTATE DEHYDROGENASE [3]: 107.33 u/L
LIPASE [3]: 9 u/L
PHOSPHORUS [3]: 12.53 mg/dL
POTASSIUM [3]: 7.05 MEQ/L
SODIUM [3]: 144.3 MEQ/L
TOTAL BILIRUBIN [3]: 0.2 mg/dL
TOTAL PROTEIN [3]: 5.63 G/DL
URIC ACID [3]: 1.93 mg/dL
